Results reported in patent US20200339625A1, “NOVEL RADIOMETAL-BINDING COMPOUNDS FOR DIAGNOSIS OR TREATMENT OF PROSTATE SPECIFIC MEMBRANE ANTIGEN-EXPRESSING CANCER” (PROVINCIAL HEALTH SERVICES AUTHORITY, priority 2017, published 2020).

Experiments:
[1] = system: mice bearing PSMA-expressing LNCAP cancer xenografts; test: Biodistribution of 68Ga-labeled compounds; type: in vivo
Procedure: (§1) Imaging and biodistribution experiments were performed using NODSCID 1L2RyKO male mice. Mice were anesthetized by inhalation with 2% isoflurane in oxygen, and implanted subcutaneously with 1×10^7 LNCaP cells behind left shoulder. Mice were imaged or used in biodistribution studies when the tumor grew up to reach 5-8 mm in diameter during 5-6 weeks.
For biodistribution studies, the mice were injected with the radiotracer as described above. At predetermined time points (1 or 3 h), the mice was anesthetized with 2% isoflurane inhalation, and euthanized by CO2 inhalation. Blood was withdrawn immediately from the heart, and the organs/tissues of interest were collected. The collected organs/tissues were weighed and counted using an automatic gamma counter. The uptake in each organ/tissue was normalized to the injected dose using a standard curve, and expressed as the percentage of the injected dose per gram of tissue (% ID/g).

[2] = system: mice bearing LNCaP tumor xenografts; test: PET/CT imaging of 68Ga-labeled compounds; type: in vivo; details: for change of tumor uptake from 1 h to 3 h post-injection: PET/CT images; for blood retention (qualitative): PET/CT images at 1 h and 3 h post-injection, comparison within the figure
Procedure: 2.17 PET/CT Imaging and Biodistribution
as §1
PET imaging experiments were conducted using Siemens Inveon micro PET/CT scanner. Each tumor bearing mouse was injected 6-8 MBq of 68Ga-labeled tracer through the tail vein under anesthesia (2% isoflurane in oxygen). The mice were allowed to recover and roam freely in their cage. After 50 min, the mice were sedated again with 2% isoflurane in oxygen inhalation and positioned in the scanner. A 10-min CT scan was conducted first for localization and attenuation correction after segmentation for reconstructing the PET images. Then, a 10-min static PET imaging was performed to determined uptake in tumor and other organs. The mice were kept warm by a heating pad during acquisition. For imaging studies acquired at 3 h post-injection (p.i.), the mice were placed in the micro PET/CT scanner at 170 min p.i. Then, the CT acquisitions were conducted as described above, a 15-min static PET imaging was performed to determined uptake in tumor and other organs.

O=C([O-])CN1CCN(CC(=O)[O-])CCN(CC(=O)NCCCC[C@H](NC(=O)CNC(=O)CCCc2ccc(Cl)cc2)C(=O)NC[C@H]2CC[C@H](C(=O)N[C@@H](Cc3ccc4ccccc4c3)C(=O)NCCCC[C@H](NC(=O)N[C@@H](CCC(=O)O)C(=O)O)C(=O)O)CC2)CCN(CC(=O)[O-])CC1.[68Ga+3] [^68Ga-HTK03055]
Adrenal glands uptake ([1]; 1 h post-injection): 5.51 ± 1.56 % ID/g | Blood uptake ([1]; 1 h post-injection): 22.1 ± 2.04 % ID/g | Bone uptake ([1]; 1 h post-injection): 1.59 ± 0.44 % ID/g | Brain uptake ([1]; 1 h post-injection): 0.29 ± 0.04 % ID/g | Fat uptake ([1]; 1 h post-injection): 2.20 ± 0.41 % ID/g | Heart uptake ([1]; 1 h post-injection): 5.20 ± 0.59 % ID/g | Intestine uptake ([1]; 1 h post-injection): 1.52 ± 0.21 % ID/g | Kidneys uptake ([1]; 1 h post-injection): 31.1 ± 4.40 % ID/g | Lacrimal uptake ([1]; 1 h post-injection): 1.82 ± 1.46 % ID/g | Liver uptake ([1]; 1 h post-injection): 3.35 ± 1.08 % ID/g | Lungs uptake ([1]; 1 h post-injection): 8.37 ± 1.10 % ID/g | Muscle uptake ([1]; 1 h post-injection): 1.60 ± 0.19 % ID/g | Pancreas uptake ([1]; 1 h post-injection): 2.02 ± 0.32 % ID/g | Salivary uptake ([1]; 1 h post-injection): 3.87 ± 0.70 % ID/g | Seminal uptake ([1]; 1 h post-injection): 1.19 ± 0.18 % ID/g | Spleen uptake ([1]; 1 h post-injection): 3.05 ± 0.63 % ID/g | Stomach uptake ([1]; 1 h post-injection): 0.62 ± 0.09 % ID/g | Tail uptake ([1]; 1 h post-injection): 4.42 ± 0.76 % ID/g | Testes uptake ([1]; 1 h post-injection): 2.54 ± 0.34 % ID/g | Thyroid uptake ([1]; 1 h post-injection): 4.20 ± 0.53 % ID/g | Tumor uptake ([1]; 1 h post-injection): 17.2 ± 1.67 % ID/g | Tumor:Blood ratio ([1]; 1 h post-injection): 0.78 ± 0.04 | Tumor:Muscle ratio ([1]; 1 h post-injection): 10.8 ± 1.15 | Tumor:kidney ratio ([1]; 1 h post-injection): 0.56 ± 0.06 | Urine uptake ([1]; 1 h post-injection): 14.6 ± 10.9 % ID/g | Adrenal glands uptake ([1]; 3 h post-injection): 6.45 ± 1.03 % ID/g | Blood uptake ([1]; 3 h post-injection): 17.4 ± 1.15 % ID/g | Bone uptake ([1]; 3 h post-injection): 2.11 ± 0.62 % ID/g | Brain uptake ([1]; 3 h post-injection): 0.28 ± 0.06 % ID/g | Fat uptake ([1]; 3 h post-injection): 2.12 ± 0.69 % ID/g | Heart uptake ([1]; 3 h post-injection): 3.89 ± 0.40 % ID/g | Intestine uptake ([1]; 3 h post-injection): 1.29 ± 0.18 % ID/g | Kidneys uptake ([1]; 3 h post-injection): 35.6 ± 7.23 % ID/g | Lacrimal uptake ([1]; 3 h post-injection): 4.14 ± 3.82 % ID/g | Liver uptake ([1]; 3 h post-injection): 2.96 ± 0.56 % ID/g | Lungs uptake ([1]; 3 h post-injection): 7.50 ± 1.05 % ID/g | Muscle uptake ([1]; 3 h post-injection): 1.26 ± 0.18 % ID/g | Pancreas uptake ([1]; 3 h post-injection): 1.74 ± 0.30 % ID/g | Salivary uptake ([1]; 3 h post-injection): 3.57 ± 1.07 % ID/g | Seminal uptake ([1]; 3 h post-injection): 1.07 ± 0.12 % ID/g | Spleen uptake ([1]; 3 h post-injection): 3.07 ± 0.78 % ID/g | Stomach uptake ([1]; 3 h post-injection): 0.59 ± 0.13 % ID/g | Tail uptake ([1]; 3 h post-injection): 3.52 ± 0.65 % ID/g | Testes uptake ([1]; 3 h post-injection): 2.63 ± 0.49 % ID/g | Thyroid uptake ([1]; 3 h post-injection): 3.40 ± 0.56 % ID/g | Tumor uptake ([1]; 3 h post-injection): 30.1 ± 3.12 % ID/g | Tumor:Blood ratio ([1]; 3 h post-injection): 1.75 ± 0.28 | Tumor:Muscle ratio ([1]; 3 h post-injection): 24.5 ± 5.08 | Tumor:kidney ratio ([1]; 3 h post-injection): 0.88 ± 0.22 | Urine uptake ([1]; 3 h post-injection): 33.8 ± 22.3 % ID/g | change of tumor uptake from 1 h to 3 h post-injection [2]: uptake in tumors increases over time | blood retention (qualitative) [2]: some extent of blood retention

O=C([O-])CN1CCN(CC(=O)[O-])CCN(CC(=O)NCCCC[C@H](NC(=O)CNC(=O)CCCc2ccccc2)C(=O)NC[C@H]2CC[C@H](C(=O)N[C@@H](Cc3ccc4ccccc4c3)C(=O)NCCCC[C@H](NC(=O)N[C@@H](CCC(=O)O)C(=O)O)C(=O)O)CC2)CCN(CC(=O)[O-])CC1.[68Ga+3] [^68Ga-HTK03056]
Adrenal glands uptake ([1]; 1 h post-injection): 3.78 ± 0.46 % ID/g | Blood uptake ([1]; 1 h post-injection): 4.68 ± 1.09 % ID/g | Bone uptake ([1]; 1 h post-injection): 0.76 ± 0.14 % ID/g | Brain uptake ([1]; 1 h post-injection): 0.10 ± 0.03 % ID/g | Fat uptake ([1]; 1 h post-injection): 0.87 ± 0.53 % ID/g | Heart uptake ([1]; 1 h post-injection): 1.29 ± 0.34 % ID/g | Intestine uptake ([1]; 1 h post-injection): 0.60 ± 0.14 % ID/g | Kidneys uptake ([1]; 1 h post-injection): 123 ± 30.4 % ID/g | Lacrimal uptake ([1]; 1 h post-injection): 1.35 ± 0.43 % ID/g | Liver uptake ([1]; 1 h post-injection): 1.02 ± 0.34 % ID/g | Lungs uptake ([1]; 1 h post-injection): 3.28 ± 0.85 % ID/g | Muscle uptake ([1]; 1 h post-injection): 0.53 ± 0.11 % ID/g | Pancreas uptake ([1]; 1 h post-injection): 0.85 ± 0.15 % ID/g | Salivary uptake ([1]; 1 h post-injection): 3.34 ± 0.89 % ID/g | Seminal uptake ([1]; 1 h post-injection): 0.74 ± 0.39 % ID/g | Spleen uptake ([1]; 1 h post-injection): 3.92 ± 0.88 % ID/g | Stomach uptake ([1]; 1 h post-injection): 0.27 ± 0.10 % ID/g | Tail uptake ([1]; 1 h post-injection): 1.43 ± 0.34 % ID/g | Testes uptake ([1]; 1 h post-injection): 0.98 ± 0.22 % ID/g | Thyroid uptake ([1]; 1 h post-injection): 1.49 ± 0.44 % ID/g | Tumor uptake ([1]; 1 h post-injection): 25.9 ± 3.21 % ID/g | Tumor:Blood ratio ([1]; 1 h post-injection): 5.67 ± 0.97 | Tumor:Muscle ratio ([1]; 1 h post-injection): 49.7 ± 5.98 | Tumor:kidney ratio ([1]; 1 h post-injection): 0.22 ± 0.04 | Urine uptake ([1]; 1 h post-injection): 203 ± 88.0 % ID/g | Adrenal glands uptake ([1]; 3 h post-injection): 3.95 ± 2.28 % ID/g | Blood uptake ([1]; 3 h post-injection): 1.17 ± 0.36 % ID/g | Bone uptake ([1]; 3 h post-injection): 1.93 ± 1.51 % ID/g | Brain uptake ([1]; 3 h post-injection): 0.12 ± 0.05 % ID/g | Fat uptake ([1]; 3 h post-injection): 0.58 ± 0.13 % ID/g | Heart uptake ([1]; 3 h post-injection): 0.59 ± 0.26 % ID/g | Intestine uptake ([1]; 3 h post-injection): 0.34 ± 0.04 % ID/g | Kidneys uptake ([1]; 3 h post-injection): 31.1 ± 15.2 % ID/g | Lacrimal uptake ([1]; 3 h post-injection): 3.01 ± 1.26 % ID/g | Liver uptake ([1]; 3 h post-injection): 0.43 ± 0.08 % ID/g | Lungs uptake ([1]; 3 h post-injection): 1.39 ± 0.53 % ID/g | Muscle uptake ([1]; 3 h post-injection): 0.46 ± 0.30 % ID/g | Pancreas uptake ([1]; 3 h post-injection): 0.41 ± 0.09 % ID/g | Salivary uptake ([1]; 3 h post-injection): 2.06 ± 1.16 % ID/g | Seminal uptake ([1]; 3 h post-injection): 0.29 ± 0.08 % ID/g | Spleen uptake ([1]; 3 h post-injection): 2.10 ± 1.16 % ID/g | Stomach uptake ([1]; 3 h post-injection): 0.14 ± 0.03 % ID/g | Tail uptake ([1]; 3 h post-injection): 0.54 ± 0.22 % ID/g | Testes uptake ([1]; 3 h post-injection): 0.56 ± 0.19 % ID/g | Thyroid uptake ([1]; 3 h post-injection): 0.72 ± 0.29 % ID/g | Tumor uptake ([1]; 3 h post-injection): 32.9 ± 10.9 % ID/g | Tumor:Blood ratio ([1]; 3 h post-injection): 30.4 ± 13.2 | Tumor:Muscle ratio ([1]; 3 h post-injection): 98.6 ± 61.8 | Tumor:kidney ratio ([1]; 3 h post-injection): 1.22 ± 0.53 | Urine uptake ([1]; 3 h post-injection): 275 ± 158 % ID/g | change of tumor uptake from 1 h to 3 h post-injection [2]: uptake in tumors increases over time | blood retention (qualitative) [2]: some extent of blood retention
